Measured values from publication PMC10838953.

Columns and labels:
TBK1 = TBK1 (Homo sapiens, UniProt Q9UHD2); assay: biochemical; conditions: read-out: %Ctrl @ 2000nM
PIK3CA(C420R) = PIK3CA(C420R) (Homo sapiens, UniProt P42336, C420R); assay: biochemical; conditions: read-out: %Ctrl @ 2000nM
FLT3(N841I) = FLT3(N841I) (Homo sapiens, UniProt P36888, N841I); assay: biochemical; conditions: read-out: %Ctrl @ 2000nM
CDC2L2 = CDC2L2 (Homo sapiens, UniProt Q9UQ88); assay: biochemical; conditions: read-out: %Ctrl @ 2000nM
CLK2 = CLK2 (Homo sapiens, UniProt P49760); assay: biochemical; conditions: read-out: %Ctrl @ 2000nM
CLK2, sequence (P49760 whole entry): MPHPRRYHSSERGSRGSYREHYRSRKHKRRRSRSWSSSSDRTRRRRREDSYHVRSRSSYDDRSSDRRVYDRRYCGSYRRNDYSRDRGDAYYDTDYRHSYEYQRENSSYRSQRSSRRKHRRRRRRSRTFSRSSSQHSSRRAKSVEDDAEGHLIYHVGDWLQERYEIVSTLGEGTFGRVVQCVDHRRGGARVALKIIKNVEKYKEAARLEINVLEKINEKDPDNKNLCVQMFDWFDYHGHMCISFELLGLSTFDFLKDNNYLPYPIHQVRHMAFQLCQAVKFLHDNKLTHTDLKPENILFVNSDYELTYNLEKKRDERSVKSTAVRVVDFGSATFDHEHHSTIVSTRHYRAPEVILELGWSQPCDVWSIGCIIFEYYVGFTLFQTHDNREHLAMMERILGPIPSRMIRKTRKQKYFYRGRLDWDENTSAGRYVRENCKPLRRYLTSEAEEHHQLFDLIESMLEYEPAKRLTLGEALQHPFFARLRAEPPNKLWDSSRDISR

CDK11 = CDK11 (Homo sapiens, UniProt Q9BWU1); assay: biochemical; conditions: read-out: %Ctrl @ 2000nM
LZK = LZK (Homo sapiens, UniProt O43283); assay: biochemical; conditions: read-out: %Ctrl @ 2000nM
GSK3B = GSK3B (Homo sapiens, UniProt P49841); assay: biochemical; conditions: read-out: %Ctrl @ 2000nM
PRKD1 = PRKD1 (Homo sapiens, UniProt Q15139); assay: biochemical; conditions: read-out: %Ctrl @ 2000nM
EGFR(G719S) = EGFR(G719S) (Homo sapiens, UniProt P00533, G719S); assay: biochemical; conditions: read-out: %Ctrl @ 2000nM
EGFR(G719S), sequence (P00533 25-1210 G719S): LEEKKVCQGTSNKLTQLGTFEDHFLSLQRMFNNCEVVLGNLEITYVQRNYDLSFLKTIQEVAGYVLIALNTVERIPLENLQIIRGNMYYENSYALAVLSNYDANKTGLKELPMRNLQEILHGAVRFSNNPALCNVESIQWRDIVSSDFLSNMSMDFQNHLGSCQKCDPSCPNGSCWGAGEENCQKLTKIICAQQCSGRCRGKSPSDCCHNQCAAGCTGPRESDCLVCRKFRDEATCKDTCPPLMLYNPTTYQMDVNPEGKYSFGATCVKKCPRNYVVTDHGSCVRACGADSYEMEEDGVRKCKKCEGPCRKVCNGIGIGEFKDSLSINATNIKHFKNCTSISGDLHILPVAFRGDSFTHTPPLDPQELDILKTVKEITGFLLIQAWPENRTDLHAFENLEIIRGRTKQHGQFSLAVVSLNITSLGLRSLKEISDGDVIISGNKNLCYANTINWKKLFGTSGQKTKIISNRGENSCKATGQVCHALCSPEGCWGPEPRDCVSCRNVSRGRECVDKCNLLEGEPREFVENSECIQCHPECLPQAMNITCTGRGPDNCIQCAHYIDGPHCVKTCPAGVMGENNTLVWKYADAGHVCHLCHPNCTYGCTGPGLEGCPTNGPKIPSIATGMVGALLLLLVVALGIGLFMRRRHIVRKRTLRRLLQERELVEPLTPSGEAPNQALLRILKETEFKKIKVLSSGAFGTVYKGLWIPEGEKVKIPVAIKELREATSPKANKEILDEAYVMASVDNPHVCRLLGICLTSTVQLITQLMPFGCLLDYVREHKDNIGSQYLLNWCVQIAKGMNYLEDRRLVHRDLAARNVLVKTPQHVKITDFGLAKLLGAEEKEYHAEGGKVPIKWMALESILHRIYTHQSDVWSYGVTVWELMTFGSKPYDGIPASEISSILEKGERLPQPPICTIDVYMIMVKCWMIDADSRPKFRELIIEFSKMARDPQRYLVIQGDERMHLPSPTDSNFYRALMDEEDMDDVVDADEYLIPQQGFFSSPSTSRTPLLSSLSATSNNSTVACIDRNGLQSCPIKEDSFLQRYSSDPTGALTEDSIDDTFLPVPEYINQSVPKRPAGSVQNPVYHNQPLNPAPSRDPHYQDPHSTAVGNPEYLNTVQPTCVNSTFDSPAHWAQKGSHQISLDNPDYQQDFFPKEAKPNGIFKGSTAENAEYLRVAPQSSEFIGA

NEK4 = NEK4 (Homo sapiens, UniProt P51957); assay: biochemical; conditions: read-out: %Ctrl @ 2000nM
ERBB3 = ERBB3 (Homo sapiens, UniProt P21860); assay: biochemical; conditions: read-out: %Ctrl @ 2000nM
[1] = target: RSK3(Kin.Dom.2-C-terminal) (Homo sapiens, UniProt Q15349); assay: biochemical; conditions: read-out: %Ctrl @ 2000nM
PKMYT1 = PKMYT1 (Homo sapiens, UniProt Q99640); assay: biochemical; conditions: read-out: %Ctrl @ 2000nM
PKMYT1, sequence (Q99640 whole entry): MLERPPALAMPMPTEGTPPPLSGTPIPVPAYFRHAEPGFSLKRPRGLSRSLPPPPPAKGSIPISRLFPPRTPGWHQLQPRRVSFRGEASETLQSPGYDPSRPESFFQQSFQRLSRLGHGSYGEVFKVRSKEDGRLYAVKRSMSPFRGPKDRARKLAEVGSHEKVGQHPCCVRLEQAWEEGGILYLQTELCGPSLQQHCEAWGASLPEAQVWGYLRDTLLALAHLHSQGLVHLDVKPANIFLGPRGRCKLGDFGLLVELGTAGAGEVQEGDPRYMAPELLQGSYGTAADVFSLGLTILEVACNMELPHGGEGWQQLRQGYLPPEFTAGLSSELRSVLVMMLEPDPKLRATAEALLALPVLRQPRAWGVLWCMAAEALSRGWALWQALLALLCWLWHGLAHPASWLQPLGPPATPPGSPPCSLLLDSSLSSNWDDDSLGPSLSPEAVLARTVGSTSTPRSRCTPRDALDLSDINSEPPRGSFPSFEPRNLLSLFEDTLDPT

EPHB4 = EPHB4 (Homo sapiens, UniProt P54760); assay: biochemical; conditions: read-out: %Ctrl @ 2000nM
[2] = target: RPS6KA4(Kin.Dom.2-C-terminal) (Homo sapiens, UniProt O75676); assay: biochemical; conditions: read-out: %Ctrl @ 2000nM
RPS6KA4(Kin.Dom.2-C-terminal), sequence (O75676 372-772 limits assumed): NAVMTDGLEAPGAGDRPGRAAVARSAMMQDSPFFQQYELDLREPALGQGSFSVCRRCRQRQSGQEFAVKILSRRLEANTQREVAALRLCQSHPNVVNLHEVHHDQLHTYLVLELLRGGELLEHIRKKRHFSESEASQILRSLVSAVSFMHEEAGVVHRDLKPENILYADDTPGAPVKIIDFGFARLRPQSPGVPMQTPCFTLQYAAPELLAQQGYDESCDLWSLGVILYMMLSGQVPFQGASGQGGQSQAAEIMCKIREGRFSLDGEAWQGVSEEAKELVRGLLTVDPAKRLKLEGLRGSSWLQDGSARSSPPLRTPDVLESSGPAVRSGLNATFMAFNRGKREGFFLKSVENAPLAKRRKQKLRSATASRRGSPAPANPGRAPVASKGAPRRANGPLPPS

PRKD3 = PRKD3 (Homo sapiens, UniProt O94806); assay: biochemical; conditions: read-out: %Ctrl @ 2000nM
STK36 = STK36 (Homo sapiens, UniProt Q9NRP7); assay: biochemical; conditions: read-out: %Ctrl @ 2000nM
FYN = FYN (Homo sapiens, UniProt P06241); assay: biochemical; conditions: read-out: %Ctrl @ 2000nM
CHEK1 = CHEK1 (Homo sapiens, UniProt O14757); assay: biochemical; conditions: read-out: %Ctrl @ 2000nM
DYRK1A = DYRK1A (Homo sapiens, UniProt Q13627); assay: biochemical; conditions: read-out: %Ctrl @ 2000nM
MKNK2 = MKNK2 (Homo sapiens, UniProt Q9HBH9); assay: biochemical; conditions: read-out: %Ctrl @ 2000nM
MKNK2, sequence (Q9HBH9 whole entry): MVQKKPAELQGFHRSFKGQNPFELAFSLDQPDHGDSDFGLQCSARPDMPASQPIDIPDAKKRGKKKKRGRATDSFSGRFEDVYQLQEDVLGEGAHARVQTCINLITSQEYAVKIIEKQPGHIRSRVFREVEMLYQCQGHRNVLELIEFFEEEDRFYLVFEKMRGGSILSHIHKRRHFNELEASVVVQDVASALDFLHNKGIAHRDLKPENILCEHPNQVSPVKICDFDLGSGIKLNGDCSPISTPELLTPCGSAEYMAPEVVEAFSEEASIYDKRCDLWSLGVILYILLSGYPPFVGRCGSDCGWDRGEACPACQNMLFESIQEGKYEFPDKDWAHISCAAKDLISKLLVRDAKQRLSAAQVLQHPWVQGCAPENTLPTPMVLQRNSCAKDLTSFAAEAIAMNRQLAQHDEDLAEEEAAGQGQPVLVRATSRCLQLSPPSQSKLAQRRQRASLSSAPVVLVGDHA

NDR2 = NDR2 (Homo sapiens, UniProt Q9Y2H1); assay: biochemical; conditions: read-out: %Ctrl @ 2000nM
NDR2, sequence (Q9Y2H1 whole entry): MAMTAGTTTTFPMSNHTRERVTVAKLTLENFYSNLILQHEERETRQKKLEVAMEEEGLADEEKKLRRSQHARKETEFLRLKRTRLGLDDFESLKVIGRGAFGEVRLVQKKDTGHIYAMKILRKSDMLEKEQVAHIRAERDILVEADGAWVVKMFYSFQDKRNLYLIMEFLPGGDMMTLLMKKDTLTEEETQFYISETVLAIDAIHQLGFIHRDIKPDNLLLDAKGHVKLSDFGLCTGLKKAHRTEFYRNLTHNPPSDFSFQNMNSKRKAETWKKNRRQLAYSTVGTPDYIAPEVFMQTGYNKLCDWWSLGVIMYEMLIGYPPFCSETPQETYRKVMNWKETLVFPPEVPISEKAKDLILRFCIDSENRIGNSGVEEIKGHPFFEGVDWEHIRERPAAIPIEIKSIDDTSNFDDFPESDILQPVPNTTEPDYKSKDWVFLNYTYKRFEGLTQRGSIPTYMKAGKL

ERK1 = ERK1 (Homo sapiens, UniProt P27361); assay: biochemical; conditions: read-out: %Ctrl @ 2000nM
EPHA4 = EPHA4 (Homo sapiens, UniProt P54764); assay: biochemical; conditions: read-out: %Ctrl @ 2000nM
[3] = target: RSK4(Kin.Dom.1-N-terminal) (Homo sapiens, UniProt Q9UK32); assay: biochemical; conditions: read-out: %Ctrl @ 2000nM
ERBB4 = ERBB4 (Homo sapiens, UniProt Q15303); assay: biochemical; conditions: read-out: %Ctrl @ 2000nM
FRK = FRK (Homo sapiens, UniProt P42685); assay: biochemical; conditions: read-out: %Ctrl @ 2000nM
SGK = SGK (Homo sapiens, UniProt O00141); assay: biochemical; conditions: read-out: %Ctrl @ 2000nM
PHKG1 = PHKG1 (Homo sapiens, UniProt Q16816); assay: biochemical; conditions: read-out: %Ctrl @ 2000nM
PHKG1, sequence (Q16816 whole entry): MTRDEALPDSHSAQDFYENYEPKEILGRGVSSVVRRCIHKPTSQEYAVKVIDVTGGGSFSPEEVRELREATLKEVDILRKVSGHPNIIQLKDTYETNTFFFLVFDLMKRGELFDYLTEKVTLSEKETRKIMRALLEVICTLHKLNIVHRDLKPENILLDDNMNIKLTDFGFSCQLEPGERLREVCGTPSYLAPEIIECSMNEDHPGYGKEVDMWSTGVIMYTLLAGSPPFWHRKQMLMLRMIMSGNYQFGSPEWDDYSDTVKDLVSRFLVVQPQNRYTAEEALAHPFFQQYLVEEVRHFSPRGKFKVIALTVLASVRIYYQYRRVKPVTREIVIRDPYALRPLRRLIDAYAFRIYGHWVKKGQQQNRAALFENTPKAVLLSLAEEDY

CAMK2A = CAMK2A (Homo sapiens, UniProt Q9UQM7); assay: biochemical; conditions: read-out: %Ctrl @ 2000nM
TTK = TTK (Homo sapiens, UniProt P33981); assay: biochemical; conditions: read-out: %Ctrl @ 2000nM
CAMKK1 = CAMKK1 (Homo sapiens, UniProt Q8N5S9); assay: biochemical; conditions: read-out: %Ctrl @ 2000nM
TNK1 = TNK1 (Homo sapiens, UniProt Q13470); assay: biochemical; conditions: read-out: %Ctrl @ 2000nM
RIPK1 = RIPK1 (Homo sapiens, UniProt Q13546); assay: biochemical; conditions: read-out: %Ctrl @ 2000nM
[4] = tested on: RPTEC (renal proximal tubule epithelial cells); conditions: high concentrations
p38-delta = p38-delta (Homo sapiens, UniProt O15264); assay: biochemical; conditions: read-out: %Ctrl @ 2000nM
p38-delta, sequence (O15264 whole entry): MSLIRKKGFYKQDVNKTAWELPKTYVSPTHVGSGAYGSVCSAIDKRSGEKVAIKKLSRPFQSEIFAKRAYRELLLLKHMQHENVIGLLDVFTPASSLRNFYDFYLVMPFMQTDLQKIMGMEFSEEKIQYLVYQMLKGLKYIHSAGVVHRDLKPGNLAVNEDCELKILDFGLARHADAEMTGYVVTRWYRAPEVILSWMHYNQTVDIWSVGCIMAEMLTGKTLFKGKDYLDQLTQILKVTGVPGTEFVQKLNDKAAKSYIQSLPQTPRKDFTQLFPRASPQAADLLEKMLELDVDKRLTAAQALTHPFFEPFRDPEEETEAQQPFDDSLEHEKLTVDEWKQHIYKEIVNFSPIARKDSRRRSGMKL

MAP4K5 = MAP4K5 (Homo sapiens, UniProt Q9Y4K4); assay: biochemical; conditions: read-out: %Ctrl @ 2000nM

TBK1, sequence (Q9UHD2 whole entry): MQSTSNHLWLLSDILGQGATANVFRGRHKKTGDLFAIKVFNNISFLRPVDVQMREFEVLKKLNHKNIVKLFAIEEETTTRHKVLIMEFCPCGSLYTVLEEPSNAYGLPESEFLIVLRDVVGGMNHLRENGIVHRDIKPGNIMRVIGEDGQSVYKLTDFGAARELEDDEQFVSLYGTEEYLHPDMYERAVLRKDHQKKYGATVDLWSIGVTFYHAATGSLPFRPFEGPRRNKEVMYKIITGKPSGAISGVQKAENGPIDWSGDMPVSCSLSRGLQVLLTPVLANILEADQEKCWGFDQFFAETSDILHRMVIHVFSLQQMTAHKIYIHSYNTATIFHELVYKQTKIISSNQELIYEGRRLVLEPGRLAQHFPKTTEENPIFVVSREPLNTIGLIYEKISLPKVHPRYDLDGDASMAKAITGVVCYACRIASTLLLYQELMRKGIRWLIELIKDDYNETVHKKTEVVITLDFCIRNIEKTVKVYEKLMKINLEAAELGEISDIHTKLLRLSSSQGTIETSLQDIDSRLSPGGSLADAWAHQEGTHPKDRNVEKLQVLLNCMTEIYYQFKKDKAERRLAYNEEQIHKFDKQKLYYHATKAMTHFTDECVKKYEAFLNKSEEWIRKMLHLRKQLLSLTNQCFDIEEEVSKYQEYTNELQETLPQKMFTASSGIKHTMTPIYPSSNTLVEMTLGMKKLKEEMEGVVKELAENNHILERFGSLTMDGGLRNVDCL

CC(C)COC(=O)c1[nH]c2ccc(F)cc2c1-c1cn(CC2CCN(CCNS(=O)(=O)c3ccc(CC(C)C)cc3)CC2)nn1 [AB668, isobutyl 5-fluoro-3-(1-((1-(2-((4-isobutylphenyl)sulfonamido)ethyl)piperidin-4-yl)methyl)-1H-1,2,3-triazol-4-yl)-1H-indole-2-carboxylate]
remaining activity at 2 µM (TBK1): 87%
remaining activity at 2 µM (PIK3CA(C420R)): 100%
remaining activity at 2 µM (FLT3(N841I)): 95%
remaining activity at 2 µM (CDC2L2): 94%
remaining activity at 2 µM (CLK2): 98%
remaining activity at 2 µM (CDK11): 76%
remaining activity at 2 µM (LZK): 100%
remaining activity at 2 µM (GSK3B): 100%
remaining activity at 2 µM (PRKD1): 100%
remaining activity at 2 µM (EGFR(G719S)): 68%
remaining activity at 2 µM (NEK4): 86%
remaining activity at 2 µM (ERBB3): 94%
remaining activity at 2 µM [1]: 85%
remaining activity at 2 µM (PKMYT1): 70%
remaining activity at 2 µM (EPHB4): 79%
remaining activity at 2 µM [2]: 97%
remaining activity at 2 µM (PRKD3): 100%
remaining activity at 2 µM (STK36): 100%
remaining activity at 2 µM (FYN): 64%
remaining activity at 2 µM (CHEK1): 95%
remaining activity at 2 µM (DYRK1A): 99%
remaining activity at 2 µM (MKNK2): 100%
remaining activity at 2 µM (NDR2): 100%
remaining activity at 2 µM (ERK1): 75%
remaining activity at 2 µM (EPHA4): 78%
remaining activity at 2 µM [3]: 88%
remaining activity at 2 µM (ERBB4): 97%
remaining activity at 2 µM (FRK): 70%
remaining activity at 2 µM (SGK): 100%
remaining activity at 2 µM (PHKG1): 76%
remaining activity at 2 µM (CAMK2A): 96%
remaining activity at 2 µM (TTK): 85%
remaining activity at 2 µM (CAMKK1): 88%
remaining activity at 2 µM (TNK1): 96%
remaining activity at 2 µM (RIPK1): 96%
cytotoxicity [4]: no cytotoxicity
remaining activity at 2 µM (p38-delta): 96%
NES: Asymmetric localization of PCP proteins (786-O cells): -1.441
NES: G1/S Transition (786-O cells): -1.326
NES: G2/M Checkpoints (786-O cells): -1.7
NES: G2/M Transition (786-O cells): -1.306
NES: Infection with Mycobacterium tuberculosis (786-O cells): 1.8732
NES: Innate Immune System (786-O cells): 1.345
NES: Keratan sulfate/keratin metabolism (786-O cells): 1.522
NES: Mitotic G1 phase and G1/S transition (786-O cells): -1.351
NES: Mitotic G2-G2/M phases (786-O cells): -1.306
NES: Response of Mtb to phagocytosis (786-O cells): 1.92
NES: TBC/RABGAPs (786-O cells): 1.83
NES: p53-Independent G1/S DNA damage checkpoint (786-O cells): -1.606
enrichmentScore: Asymmetric localization of PCP proteins (786-O cells): -0.3931
enrichmentScore: G1/S Transition (786-O cells): -0.3116
enrichmentScore: G2/M Checkpoints (786-O cells): -0.3959
enrichmentScore: G2/M Transition (786-O cells): -0.2924
enrichmentScore: Infection with Mycobacterium tuberculosis (786-O cells): 0.7066
enrichmentScore: Innate Immune System (786-O cells): 0.2817
enrichmentScore: Mitotic G2-G2/M phases (786-O cells): -0.2924
enrichmentScore: Response of Mtb to phagocytosis (786-O cells): 0.737
enrichmentScore: TBC/RABGAPs (786-O cells): 0.6519
remaining activity at 2 µM (MAP4K5): 96%
